Source: the Deep4Chem optical property database

Experiment: photoluminescence quantum yield (fraction); solvent given as SMILES
[1] = in c1ccc2c(c1)c1ccccc1n2-c1ccc(-c2ccc(-n3c4ccccc4c4ccccc43)cc2)cc1

## CC(C)(C(=O)c1ccc(N2c3ccccc3Oc3ccccc32)cc1)C(=O)c1ccc(N2c3ccccc3Oc3ccccc32)cc1
[1]
  photoluminescence quantum yield: 0.54

## NCCCCCCCCCCCCN1C(=O)c2ccc3c4ccc5c6c(ccc(c7ccc(c2c37)C1=O)c64)C(=O)NC5=O
In CN(C)C=O
  photoluminescence quantum yield: 0.89

## CCCCCCOc1cc(N(CC)CC)ccc1/C=C(\C#N)c1ccc(/C=C/C(=C(C#N)C#N)c2ccc(N(c3ccccc3)c3ccccc3)cc2)s1
In ClCCl
  photoluminescence quantum yield: 0.027

## COC(=O)c1cccc2c1C#Cc1c(NC(C)=O)cccc1OCCCO2
In CC#N
  photoluminescence quantum yield: 0.29
In ClCCl
  photoluminescence quantum yield: 0.33

## Clc1nc(Cl)nc(Nc2cc3ccc4cccc5ccc(c2)c3c45)n1
In CC#N
  photoluminescence quantum yield: 0
In CCCCOCCCC
  photoluminescence quantum yield: 0.06
In CO
  photoluminescence quantum yield: 0

## CCCCCCCCCCCCOc1cc2c3c(ccc4c5c(N6CCOCC6)cc6c7c(ccc(c1c34)c75)C(=O)N(C1CCCCC1)C6=O)C(=O)N(C1CCCCC1)C2=O
In ClC(Cl)Cl
  photoluminescence quantum yield: 0.067

## COc1ccc2ccc3oc(=O)c(-c4ccccc4)nc3c2c1
In c1ccccc1
  photoluminescence quantum yield: 0.668

## C#CCNC1=C2C=C(c3cc4n(c3)[B-](F)(F)[N+]3=CC=CC3=C4c3c(C)cc(C)cc3C)C(C)=[N+]2[B-](F)(F)n2c(C)ccc21
In C1CCCCC1
  photoluminescence quantum yield: 0.42
In CCOC(C)=O
  photoluminescence quantum yield: 0.06

## Fc1ccc(-[c+]2c3ccccc3sc3ccccc32)cc1
In CC#N
  photoluminescence quantum yield: 0.018

## O=Cc1nc2ccc(C#Cc3ccc(N(c4ccccc4)c4ccccc4)cc3)cc2s1
In Cc1ccccc1
  photoluminescence quantum yield: 0.57

## COc1ccc(-c2c3ccccc3c(-c3ccc(OC)cc3)c3ccccc23)cc1
In ClCCl
  photoluminescence quantum yield: 0.59

## C(=C\c1cc(-c2ccccc2)c(/C=C/c2ccc(N(c3ccccc3)c3ccccc3)cc2)cc1-c1ccccc1)/c1ccc(N(c2ccccc2)c2ccccc2)cc1
In ClCCl
  photoluminescence quantum yield: 0.8

## N#Cc1ccc(/C=C/c2c3ccccc3cc3ccccc23)cc1
In CC1CCCCC1
  photoluminescence quantum yield: 0.27
In CC#N
  photoluminescence quantum yield: 0.003
In CO
  photoluminescence quantum yield: 0.029
In Cc1ccccc1
  photoluminescence quantum yield: 0.23
In ClC(Cl)Cl
  photoluminescence quantum yield: 0.05

## COc1ccc(-c2c3ccc(=[N+]4CCCCC4)cc-3oc3cc(N4CCCCC4)ccc23)cc1
In CCO
  photoluminescence quantum yield: 0.31
In ClCCl
  photoluminescence quantum yield: 0.91

## c1coc(-c2nc3ccccc3[nH]2)c1
In C1CCOC1
  photoluminescence quantum yield: 0.87
In CCCCCC
  photoluminescence quantum yield: 0.95
In CCO
  photoluminescence quantum yield: 0.93
In CCOCC
  photoluminescence quantum yield: 0.94
In CO
  photoluminescence quantum yield: 0.97
In ClC(Cl)Cl
  photoluminescence quantum yield: 0.28
In ClCCl
  photoluminescence quantum yield: 0.86
In O
  photoluminescence quantum yield: 0.96

## CCN(CC)c1ccc2cc(/C=C/C(=O)/C=C(O)/C=C/c3cc4ccc(N(CC)CC)cc4oc3=O)c(=O)oc2c1
In C1CCOC1
  photoluminescence quantum yield: 0.62
In C1COCCO1
  photoluminescence quantum yield: 0.66
In CC#N
  photoluminescence quantum yield: 0.06
In CC(C)=O
  photoluminescence quantum yield: 0.2
In CCOC(C)=O
  photoluminescence quantum yield: 0.56
In CS(C)=O
  photoluminescence quantum yield: 0.05
In Cc1ccccc1
  photoluminescence quantum yield: 0.76
In ClC(Cl)Cl
  photoluminescence quantum yield: 0.45
In ClCCl
  photoluminescence quantum yield: 0.44

## C(#Cc1c2ccccc2c(-c2ccccc2)c2cc3ccccc3cc12)c1ccccc1
In ClCCl
  photoluminescence quantum yield: 0.79

## Cc1ccc(N(c2ccc(C)cc2)c2ccc(-c3ccc4c(c3)C(=O)c3ccccc3C4=O)cc2)cc1
In C1CCOC1
  photoluminescence quantum yield: 0
In CCCCCC
  photoluminescence quantum yield: 0.403
In CCOC(C)=O
  photoluminescence quantum yield: 0
In CCOCC
  photoluminescence quantum yield: 0.0041
In Cc1ccccc1
  photoluminescence quantum yield: 0.0801
In ClC(Cl)(Cl)Cl
  photoluminescence quantum yield: 0.246
In ClCCl
  photoluminescence quantum yield: 0

## CCOC(=O)C(C(=O)OCC)C1=[N+]2C(=C(c3ccc(C)cc3)c3ccc(Cl)n3[B-]2(F)F)C=C1
In C1CCCCC1
  photoluminescence quantum yield: 0.46
In C1CCOC1
  photoluminescence quantum yield: 0.48
In CCOC(C)=O
  photoluminescence quantum yield: 0.4
In CO
  photoluminescence quantum yield: 0.28
In Cc1ccccc1
  photoluminescence quantum yield: 0.79
In ClC(Cl)Cl
  photoluminescence quantum yield: 0.52

## CCOC(=O)COc1ccc(/C=C/C2=C3C(C)=CC(C)=[N+]3[B-](F)(F)n3c2c2ccccc2c3-c2[nH]c(C)cc2C)cc1
In ClCCl
  photoluminescence quantum yield: 0.01

## COc1cc(-c2ncc(-c3ccncc3)o2)cc(OC)c1OC
In ClCCl
  photoluminescence quantum yield: 0.54

## C(#Cc1ncnc2ccccc12)c1ccc(N(c2ccccc2)c2ccccc2)cc1
In ClCCl
  photoluminescence quantum yield: 0.03

## CC(C)(C)c1cc(/C2=C3\C=CC(=N3)/C(c3ccc([N+](=O)[O-])cc3)=c3/cc/c([nH]3)=C(\c3ccc([N+](=O)[O-])cc3)C3=N/C(=C(/c4cc(C(C)(C)C)cc(C(C)(C)C)c4)c4cc2c[nH]4)C=C3)cc(C(C)(C)C)c1
In CC(=O)N(C)C
  photoluminescence quantum yield: 0.024

## C[N+]1=C(/C=C/C=C2/N(CCCc3ccccc3)c3ccccc3C2(C)C)C(C)(C)c2ccccc21
In CS(C)=O
  photoluminescence quantum yield: 0.08

## CC1(C)C(/C=C/C2=C(c3ccc(C(=O)O)cc3)C(=C/C=C3/N(CCCCS(=O)(=O)[O-])c4ccc5ccccc5c4C3(C)C)/CCC2)=[N+](CCCCS(=O)(=O)[O-])c2ccc3ccccc3c21
In CO
  photoluminescence quantum yield: 0.092

## C=CC12N=N[C@](C=C)(C3C4CCC(C4)C31)C1[C@@H]3CC[C@@H](C3)[C@H]12 (stereo partly specified)
In CC#N
  photoluminescence quantum yield: 0.16

## CC1(C)C(=O)C=Cc2ccc(N)cc21
In O
  photoluminescence quantum yield: 0.14

## CCCCC1(c2ccccc2)Nc2c(-c3ccc(N(C)c4ccccc4)cc3)ccc(-c3ccc(N(C)c4ccccc4)cc3)c2N=C1c1ccccc1 (stereo unspecified)
In ClC(Cl)Cl
  photoluminescence quantum yield: 0.01

## Cc1cccc2cc(-c3cc4cccc(C)c4oc3=O)oc12
In CS(C)=O
  photoluminescence quantum yield: 0.88

## COc1ccc(N(c2ccc(OC)cc2)c2cc3ccc4cc(B(c5c(C)cc(C)cc5C)c5c(C)cc(C)cc5C)cc5ccc(c2)c3c45)cc1
In C1CCOC1
  photoluminescence quantum yield: 0.44
In CC(C)=O
  photoluminescence quantum yield: 0.21
In CCCCCC
  photoluminescence quantum yield: 0.22
In Cc1ccccc1
  photoluminescence quantum yield: 0.27
In ClC(Cl)Cl
  photoluminescence quantum yield: 0.23
In ClCCl
  photoluminescence quantum yield: 0.42

## COc1ccc(-c2csc(/C(C#N)=C/c3ccc(C(F)(F)F)cc3)n2)cc1
In CC#N
  photoluminescence quantum yield: 0.015

## CCCCCCCCn1c(=O)c2cc3c(-c4ccc(N(c5ccccc5)c5ccccc5)cc4)c4cc5c(=O)n(CCCCCCCC)c(=O)c5cc4c(-c4ccc(N(c5ccccc5)c5ccccc5)cc4)c3cc2c1=O
In ClC(Cl)Cl
  photoluminescence quantum yield: 0.03

## CCC1=C(C)C(=O)n2c1cc1[nH]c(C(=O)OC(C)(C)C)c(C)c1c2=O
In C1CCCCC1
  photoluminescence quantum yield: 0.03
In CO
  photoluminescence quantum yield: 0.71
In CS(C)=O
  photoluminescence quantum yield: 0.86
In ClC(Cl)Cl
  photoluminescence quantum yield: 0.72
In c1ccccc1
  photoluminescence quantum yield: 0.16

## CC/[NH+]=c1\cc2oc3cc(NCCC(=O)NCCCCC(NC(C)=O)C(=O)OC)c4ccccc4c3nc-2cc1C (stereo unspecified)
In CCO
  photoluminescence quantum yield: 0.32
In O
  photoluminescence quantum yield: 0.46

## COc1c2ccccc2c(OC)c2c(C#CC(C)(C)C)c3cc4ccccc4cc3c(C#CC(C)(C)C)c12
In C1CCOC1
  photoluminescence quantum yield: 0.11
In Cc1ccccc1
  photoluminescence quantum yield: 0.1
In ClCCl
  photoluminescence quantum yield: 0.09

## COC(=O)CCC(NC(=O)CCNc1cccc2ccccc12)C(=O)OC (stereo unspecified)
In CCO
  photoluminescence quantum yield: 0.57

## Cn1nc(-c2ccccc2)c2n[nH]nc2/c1=N\c1ccccn1
In CC#N
  photoluminescence quantum yield: 0.05
In CCO
  photoluminescence quantum yield: 0.06
In Cc1ccccc1
  photoluminescence quantum yield: 0.07

## COc1ccc2c(c1)c1cc(OC)ccc1n2-c1cc(Cl)c([C](c2c(Cl)cc(Cl)cc2Cl)c2c(Cl)cc(Cl)cc2Cl)c(Cl)c1
In C1CCCCC1
  photoluminescence quantum yield: 0.006

## CC(=O)c1c2c(cc3ccc(N(C)C)cc13)CCC2
In C1CCCCC1
  photoluminescence quantum yield: 0.45
In C1CCOC1
  photoluminescence quantum yield: 0.75
In C1COCCO1
  photoluminescence quantum yield: 0.46
In CC#N
  photoluminescence quantum yield: 0.99
In CCO
  photoluminescence quantum yield: 0.05
In CS(C)=O
  photoluminescence quantum yield: 0.85
In Cc1ccccc1
  photoluminescence quantum yield: 0.62
In ClC(Cl)Cl
  photoluminescence quantum yield: 0.77
In ClCCl
  photoluminescence quantum yield: 0.99

## c1ccc(-c2nc3ccccc3nc2-c2cc(-n3c4ccccc4c4ccccc43)cc(-n3c4ccccc4c4ccccc43)c2)cc1
In Cc1ccccc1
  photoluminescence quantum yield: 0.19

## CCCCCCCCCCC(CCCCCCCCCC)Cn1c2cc(-c3ccc(C(C)(C)C)cc3)c3cccc4c5ccc6c7cc(-c8cc(C(C)(C)C)cc(C(C)(C)C)c8)n8c7c(c7cc1c(c5c76)c2c34)=C1C=CC(c2cc(C(C)(C)C)cc(C(C)(C)C)c2)=[N+]1[B-]8(F)F
In Cc1ccccc1
  photoluminescence quantum yield: 0.008

## COc1ccc(/C=C/C2=CC(/C=C/c3ccc(OC)cc3)=[O+][B-](OC(C)=O)(OC(C)=O)O2)cc1
In C1CCOC1
  photoluminescence quantum yield: 0.95
In CC#N
  photoluminescence quantum yield: 0.85
In CC(C)=O
  photoluminescence quantum yield: 0.88
In CS(C)=O
  photoluminescence quantum yield: 0.83
In Cc1ccccc1
  photoluminescence quantum yield: 0.98
In ClC(Cl)Cl
  photoluminescence quantum yield: 0.91
In ClCCl
  photoluminescence quantum yield: 0.92

## c1ccc2c(C3=C(c4cccc5ccccc45)c4cccc5c4c(cc4nc6ccccc6nc45)O3)cccc2c1
In ClCCl
  photoluminescence quantum yield: 0.32

## CC[N+]1=C(/C=C/c2c(C)nn3c(-c4ccc(OC)cc4)ccnc23)C(C)(C)c2ccccc21
In CCO
  photoluminescence quantum yield: 0.37
In ClCCl
  photoluminescence quantum yield: 0.13
In O
  photoluminescence quantum yield: 0.42

## COc1cc(OC)cc(C2=C(c3cc(OC)c(OC)c(OC)c3)C3=Nc4c(-c5cc(OC)c(OC)c(OC)c5)c(-c5cc(OC)cc(OC)c5)c(-c5ccc(C(C)(C)C)cc5)n4[B-](F)(F)[N+]3=C2c2ccc(C(C)(C)C)cc2)c1
In Cc1ccccc1
  photoluminescence quantum yield: 0.01

## c1ccc2cc3c(cc2c1)-c1cccc2cc4ccccc4c-3c12
In CCCCCCC
  photoluminescence quantum yield: 0.52

## O=C1c2ccc(-c3ccc(N(c4ccccc4)c4ccccc4)cc3)cc2C(=O)c2ccc(-c3ccc(N(c4ccccc4)c4ccccc4)cc3)cc21
In Cc1ccccc1
  photoluminescence quantum yield: 0.59
[1]
  photoluminescence quantum yield: 0.8

## Clc1nc(Cl)nc(Nc2ccc3cc4ccccc4cc3c2)n1
In C1COCCO1
  photoluminescence quantum yield: 0
In CC#N
  photoluminescence quantum yield: 0
In CCCCOCCCC
  photoluminescence quantum yield: 0
In CCOC(C)=O
  photoluminescence quantum yield: 0

## F[B-]1(F)Oc2c(-c3cccc4c3O[B-](F)(F)[n+]3c(-c5ccccc5)c(-c5ccccc5)n(-c5ccc(C(F)(F)F)cc5)c3-4)cccc2-c2n(-c3ccc(C(F)(F)F)cc3)c(-c3ccccc3)c(-c3ccccc3)[n+]21
In C1CCOC1
  photoluminescence quantum yield: 0.68

## CCN(CC)c1ccc(C=Cc2nc3nc4ccccc4nc3s2)cc1
In CCO
  photoluminescence quantum yield: 0.36

## c1ccc(-c2c3ccc(=[N+]4CCCCC4)cc-3oc3cc(N4CCCCC4)ccc23)cc1
In CCO
  photoluminescence quantum yield: 0.3
In ClCCl
  photoluminescence quantum yield: 0.89
